Each structure is given as a SMILES string.

T1 sequence (Q00987 17-125): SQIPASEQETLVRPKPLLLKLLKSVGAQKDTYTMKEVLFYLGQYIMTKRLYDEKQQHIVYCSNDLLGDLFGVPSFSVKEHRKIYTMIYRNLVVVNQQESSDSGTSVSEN

One test has as its target T1, HDM2 (Homo sapiens, UniProt Q00987).
T1 construct: Thioredoxin (N); made in house; host or cells: E. coli strain BL21(DE3)Rosetta
Briefly: HDM2 FRET assay (inhibition of binding of FITC labeled p53-pocket peptide to HDM2). To be noted: Table 9; read-out: FRET IC50. An outline of the steps:
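Signal is read as the 520/495 nm emission ratio and converted to percent inhibition; nonlinear sigmoidal regression yields IC50. The assay mixes HDM2 (0.5 nM), FITC-p53 peptide (3 nM) and Tb anti-His antibody (0.25 nM) at 0.1% DMSO.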
As to `C[C@@H](Nc1nc(C(=O)O)nc2nc(N3CCCCC3c3cccc(F)c3)n(Cc3ccc(C(F)(F)F)cc3)c12)C1CCC1` (stereo partly drawn) [Example 9.116, 6-{[(1R)-1-cyclobutylethyl]amino}-8-[2-(3-fluorophenyl)piperidin-1-yl]-7-[4-(trifluoromethyl)benzyl]-7H-purine-2-carboxylic acid], the IC50 turned out to be 14 nM.
Still for that read-out and setting: the same measure for `C[C@@H](Nc1nc(C(=O)O)nc2nc(N3CCCCC3c3ccc(F)cc3)n(Cc3ccc(C(F)(F)F)cc3)c12)C1CCC1` (stereo partly drawn) [Example 9.117, 6-{[(1R)-1-cyclobutylethyl]amino}-8-[2-(4-fluorophenyl)piperidin-1-yl]-7-[4-(trifluoromethyl)benzyl]-7H-purine-2-carboxylic acid]: 10.6 nM.
Turning to `C[C@@H](Nc1nc(C(=O)O)nc2nc(N3CCOCC3)n(Cc3ccc(C(F)(F)F)cc3)c12)C1CCC1` [Example 9.118, 6-{[(1R)-1-cyclobutylethyl]amino}-8-morpholin-4-yl-7-[4-(trifluoromethyl)benzyl]-7H-purine-2-carboxylic acid], the IC50 is 51.8 nM.
Still for that read-out and setting: the same measure for `CC(C)C1CCCCN1c1nc2nc(C(=O)O)nc(N[C@H](C)C3CCC3)c2n1Cc1ccc(C(F)(F)F)cc1` (stereo partly drawn) [Example 9.119, 6-{[(1R)-1-cyclobutylethyl]amino}-8-[2-(1-methylethyl)piperidin-1-yl]-7-[4-(trifluoromethyl)benzyl]-7H-purine-2-carboxylic acid]: 9.16 nM; for `CC(C)CC1CCCCN1c1nc2nc(C(=O)O)nc(N[C@H](C)C3CCC3)c2n1Cc1ccc(C(F)(F)F)cc1` (stereo partly drawn) [Example 9.120, 6-{[(1R)-1-cyclobutylethyl]amino}-8-[2-(2-methylpropyl)piperidin-1-yl]-7-[4-(trifluoromethyl)benzyl]-7H-purine-2-carboxylic acid]: 5.32 nM; for `C[C@@H](Nc1nc(C(=O)O)nc2nc(N3CCc4ccccc4C3)n(Cc3ccc(C(F)(F)F)cc3)c12)C1CCC1` [Example 9.121, 6-{[(1R)-1-cyclobutylethyl]amino}-8-(3,4-dihydroisoquinolin-2(1H)-yl)-7-[4-(trifluoromethyl)benzyl]-7H-purine-2-carboxylic acid]: 10.6 nM.
As to `C[C@@H](Nc1nc(C(=O)O)nc2nc(N3CCCCC3C3CCCCC3)n(Cc3ccc(C(F)(F)F)cc3)c12)C1CCC1` (stereo partly drawn) [Example 9.122, 6-{[(1R)-1-cyclobutylethyl]amino}-8-(2-cyclohexylpiperidin-1-yl)-7-[4-(trifluoromethyl)benzyl]-7H-purine-2-carboxylic acid], the IC50 was determined as 4.59 nM.
Still for that read-out and setting: the same measure for `C[C@@H](Nc1nc(C(=O)O)nc2nc(NC(C)(C)c3ccccc3)n(Cc3ccc(C(F)(F)F)cc3)c12)C1CCC1` [Example 9.123, 6-{[(1R)-1-cyclobutylethyl]amino}-8-[(1-methyl-1-phenylethyl)amino]-7-[4-(trifluoromethyl)benzyl]-7H-purine-2-carboxylic acid]: 1.85 nM.
As to `C[C@@H](Nc1nc(C(=O)O)nc2nc(N3CCCc4ccccc43)n(Cc3ccc(C(F)(F)F)cc3)c12)C1CCC1` [Example 9.124, 6-{[(1R)-1-cyclobutylethyl]amino}-8-(3,4-dihydroquinolin-1(2H)-yl)-7-[4-(trifluoromethyl)benzyl]-7H-purine-2-carboxylic acid], the IC50 amounted to 10.4 nM.
Still for that read-out and setting: the same measure for `C[C@@H]1COCCN1c1nc2nc(-c3noc(=O)[nH]3)nc(N[C@H](C)C3CCC3)c2n1Cc1ccc(C(F)(F)F)cc1` [Example 9.125, 3-(6-{[(1R)-1-cyclobutylethyl]amino}-8-[(3R)-3-methylmorpholin-4-yl]-7-[4-(trifluoromethyl)benzyl]-7H-purin-2-yl)-1,2,4-oxadiazol-5(4H)-one]: 6.72 nM.

Still in this test, the particulars now being: Table 10; read-out: FRET IC50.
Take `C[C@@H](Nc1nc(C(=O)O)nc2nc(COc3ccccc3)n(Cc3ccc(C(F)(F)F)cc3)c12)C1CCC1` [Example 10.1, (R)-6-((1-cyclobutylethyl)amino)-8-(phenoxymethyl)-7-(4-(trifluoromethyl)benzyl)-7H-purine-2-carboxylic acid]: the IC50 came to 37.5 nM.
For `C[C@@H](Nc1nc(C(=O)O)nc2nc(COCc3ccccc3)n(Cc3ccc(C(F)(F)F)cc3)c12)C1CCC1` [Example 10.2, (R)-8-((benzyloxy)methyl)-6-((1-cyclobutylethyl)amino)-7-(4-(trifluoromethyl)benzyl)-7H-purine-2-carboxylic acid], the IC50 was 21.6 nM.
For `CC(C)CC(=O)N(C)c1nc2nc(C(=O)O)nc(N[C@H](C)C3CCC3)c2n1Cc1ccc(C(F)(F)F)cc1` [Example 10.3, (R)-6-((1-cyclobutylethyl)amino)-8-(N,3-dimethylbutanamido)-7-(4-(trifluoromethyl)benzyl)-7H-purine-2-carboxylic acid], the IC50 was 69.8 nM.
Same read-out and setting: the same measure for `C[C@@H](Nc1nc(C(=O)O)nc2nc(N(C)C(=O)C3CCCCC3)n(Cc3ccc(C(F)(F)F)cc3)c12)C1CCC1` [Example 10.4, (R)-6-((1-cyclobutylethyl)amino)-8-(N-methylcyclohexanecarboxamido)-7-(4-(trifluoromethyl)benzyl)-7H-purine-2-carboxylic acid]: 14.1 nM; for `CC(C)COC(C)c1nc2nc(C(=O)O)nc(N[C@H](C)C3CCC3)c2n1Cc1ccc(C(F)(F)F)cc1` (stereo partly drawn) [Example 10.5, 6-(((R)-1-cyclobutylethyl)amino)-8-(1-isobutoxyethyl)-7-(4-(trifluoromethyl)benzyl)-7H-purine-2-carboxylic acid]: 39.4 nM.
On to `CC(O)c1nc2nc(C(=O)O)nc(N[C@H](C)C3CCC3)c2n1Cc1ccc(C(F)(F)F)cc1` (stereo partly drawn) [Example 10.7, 6-(((R)-1-Cyclobutylethyl)amino)-8-(1-hydroxyethyl)-7-(4-(trifluoromethyl)benzyl)-7H-purine-2-carboxylic acid], for which the IC50 came to 140 nM.
Turning to `CC(Oc1ccccc1)c1nc2nc(C(=O)O)nc(N[C@H](C)C3CCC3)c2n1Cc1ccc(C(F)(F)F)cc1` (stereo partly drawn) [Example 10.8, 6-(((R)-1-Cyclobutylethyl)amino)-8-(1-phenoxyethyl)-7-(4-(trifluoromethyl)benzyl)-7H-purine-2-carboxylic acid], the IC50 came out at 28.9 nM.
As to `CC(C)CN(C)C(C)c1nc2nc(C(=O)O)nc(N[C@H](C)C3CCC3)c2n1Cc1ccc(C(F)(F)F)cc1` (stereo partly drawn) [Example 10.9, 6-(((R)-1-cyclobutylethyl)amino)-8-(1-(isobutyl(methyl)amino)ethyl)-7-(4-(trifluoromethyl)benzyl)-7H-purine-2-carboxylic acid], the IC50 came to 21.2 nM.
`CC(c1nc2nc(C(=O)O)nc(N[C@H](C)C3CCC3)c2n1Cc1ccc(C(F)(F)F)cc1)N(C)c1ccccc1` (stereo partly drawn) [Example 10.10, 6-(((R)-1-cyclobutylethyl)amino)-8-(1-(methyl(phenyl)amino)ethyl)-7-(4-(trifluoromethyl)benzyl)-7H-purine-2-carboxylic acid]: the IC50 stood at 68.8 nM.
As for `CC(c1nc2nc(C(=O)O)nc(N[C@H](C)C3CCC3)c2n1Cc1ccc(C(F)(F)F)cc1)N(C)C1CCCCC1` (stereo partly drawn) [Example 10.11, 6-(((R)-1-cyclobutylethyl)amino)-8-(1-(cyclohexyl(methyl)amino)ethyl)-7-(4-(trifluoromethyl)benzyl)-7H-purine-2-carboxylic acid], the IC50 worked out at 22.1 nM.

Source of the values: patent EP2951180B1, “2,6,7,8 SUBSTITUTED PURINES AS HDM2 INHIBITORS” (Merck Sharp & Dohme Corp., priority 2013, dated 2014).
